In patent US9944641B2, “Isoquinolinone derivatives useful in the treatment of cancer” (PIERRE FABRE MEDICAMENT, priority 2014, dated 2018):

Assays:
JAK2 = biological target: T1, JAK2 (Homo sapiens, UniProt O60674); assay: Lanthascreen TR-FRET enzymatic assay, JAK2; assay type: binding; conditions: recombinant JAK2, 1 hour at 25° C., 1% DMSO; read-out: Enzymology (IC50) JAK2
T1 construct: purchased Life Technologies PV4210
Method: (§1) Recombinant FLT3 (#PV3182), JAK2 (#PV4210) and JAK3 (#PV3855) enzymes were purchased from Life Technologies. FLT3-ITD (#0778-0000-1) and FLT3^D835Y (#14-610) were respectively purchased from Proquinase and Merck Millipore.
(§2) The assays were conducted in 384-well plates based on Life Technologies Lanthascreen® TR-FRET methodologies.
JAK2 assays: 15 nM of JAK2, 150 nM of the 236 kinase tracker (Life Technologies #PV5592) and 6 nM of the Europium-tagged anti-GST Lanthascreen® antibody are mixed into 15 μL total volume reaction mixture.
(§3) IC50s were determined from a 8-point dose-response curve spanning a >1000 fold concentration range using a 10 mM compound solution stock into pure DMSO (Sigma #D8418). The overall DMSO concentrations of tested solutions were 1%.
(§4) IC50s were generated with the software Prism (Graphpad).

MV4-11 cells = assay: Antiproliferative activity assay (ATPLite), MV4-11; assay type: cell-based; conditions: Homo sapiens, MV4-11 (AML, FLT3-ITD), 72 h, read-out: Inhibition of proliferation (EC50) MV411
Method: (§5) Cell lines MV4-11 and MOLM-13 are grown according to conditions depicted in Table 2 following the provider recommendations.
(§6) Assays are being run into 96-well plates. Cells are passaged at Day 0, seeded at Day 1 and added with increasing quantities of the compounds to evaluate. Plates are incubated for 72 h at 37° C. under a 5% CO2 atmosphere.
(§7) Half-logarithmic dilutions from compounds stock solutions in DMSO (Sigma #D8414) were done in order to obtain 0.1% DMSO solutions.
(§8) Cellular viability is measured at Day 4 with the ATPLite (Perkin Elmer #6016947) kit.

FLT3 wt = biological target: T2, FLT3 wt (Homo sapiens, UniProt P36888); assay: Lanthascreen TR-FRET enzymatic assay, FLT3; assay type: binding; conditions: recombinant FLT3, 1 hour at 25° C., 1% DMSO; read-out: Enzymology (IC50) FLT3 wt
T2 construct: purchased Life Technologies PV3182
T2 sequence (P36888 564-993 limits assumed): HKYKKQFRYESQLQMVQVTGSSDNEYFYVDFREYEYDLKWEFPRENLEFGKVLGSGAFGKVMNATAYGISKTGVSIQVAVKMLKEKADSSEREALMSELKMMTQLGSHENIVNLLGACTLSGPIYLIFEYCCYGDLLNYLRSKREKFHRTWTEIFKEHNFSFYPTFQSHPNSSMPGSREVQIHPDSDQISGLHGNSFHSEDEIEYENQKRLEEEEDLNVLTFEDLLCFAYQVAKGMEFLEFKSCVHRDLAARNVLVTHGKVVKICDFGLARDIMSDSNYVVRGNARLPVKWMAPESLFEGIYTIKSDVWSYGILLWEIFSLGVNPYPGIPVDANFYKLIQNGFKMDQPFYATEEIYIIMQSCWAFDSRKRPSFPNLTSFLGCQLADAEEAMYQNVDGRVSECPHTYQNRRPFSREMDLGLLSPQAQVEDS
Method: as §1, §2
FLT3 assays: 15 nM of FLT3, 3 nM of the 236 kinase tracker (Life Technologies #PV5592) and 6 nM of the Europium-tagged anti-His Lanthascreen® antibody are mixed into 15 μL total volume reaction mixture.
as §3, §4

MOLM-13 cells = assay: Antiproliferative activity assay (ATPLite), MOLM-13; assay type: cell-based; conditions: Homo sapiens, MOLM-13 (AML, FLT3-ITD), 72 h, read-out: Inhibition of proliferation (EC50) MOLM13
Method: as §5, §6, §7, §8

JAK3 = biological target: T3, JAK3 (Homo sapiens, UniProt P52333); assay: Lanthascreen TR-FRET enzymatic assay, JAK3; assay type: binding; conditions: recombinant JAK3, 1 hour at 25° C., 1% DMSO; read-out: Enzymology (IC50) JAK3
T3 construct: purchased Life Technologies PV3855
T3 sequence (P52333 1-1124): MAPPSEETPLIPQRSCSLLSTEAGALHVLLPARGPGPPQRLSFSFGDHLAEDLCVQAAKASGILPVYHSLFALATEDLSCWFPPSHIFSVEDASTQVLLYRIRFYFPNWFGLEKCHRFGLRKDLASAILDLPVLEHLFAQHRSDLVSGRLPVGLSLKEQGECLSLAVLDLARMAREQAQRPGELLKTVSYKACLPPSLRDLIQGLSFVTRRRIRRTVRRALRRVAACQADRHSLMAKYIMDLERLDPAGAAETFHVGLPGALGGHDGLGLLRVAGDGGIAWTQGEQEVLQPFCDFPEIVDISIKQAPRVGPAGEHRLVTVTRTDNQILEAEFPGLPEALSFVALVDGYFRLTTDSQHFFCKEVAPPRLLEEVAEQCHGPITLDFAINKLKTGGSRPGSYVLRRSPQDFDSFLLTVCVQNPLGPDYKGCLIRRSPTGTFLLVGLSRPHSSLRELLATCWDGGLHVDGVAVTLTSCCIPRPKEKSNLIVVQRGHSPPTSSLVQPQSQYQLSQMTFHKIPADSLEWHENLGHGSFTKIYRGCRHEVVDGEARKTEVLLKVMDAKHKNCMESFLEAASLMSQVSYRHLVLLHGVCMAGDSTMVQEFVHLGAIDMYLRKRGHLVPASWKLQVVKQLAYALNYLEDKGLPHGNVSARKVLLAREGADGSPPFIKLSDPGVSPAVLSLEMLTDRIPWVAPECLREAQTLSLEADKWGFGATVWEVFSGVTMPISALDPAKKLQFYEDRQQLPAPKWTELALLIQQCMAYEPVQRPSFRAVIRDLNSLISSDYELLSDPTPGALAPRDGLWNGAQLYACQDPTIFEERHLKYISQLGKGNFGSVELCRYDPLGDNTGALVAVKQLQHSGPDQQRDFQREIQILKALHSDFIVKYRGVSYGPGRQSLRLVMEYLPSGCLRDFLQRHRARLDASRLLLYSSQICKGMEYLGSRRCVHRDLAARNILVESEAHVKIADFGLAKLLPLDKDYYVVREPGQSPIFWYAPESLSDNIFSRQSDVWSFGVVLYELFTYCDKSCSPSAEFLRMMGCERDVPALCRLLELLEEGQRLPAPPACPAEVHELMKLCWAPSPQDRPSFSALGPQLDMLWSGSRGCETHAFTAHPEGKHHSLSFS
Method: as §1, §2
JAK3 assays: 15 nM of […], 3 nM of the 236 kinase tracker (Life Technologies #PV5592) and 6 nM of the Europium-tagged anti-GST Lanthascreen® antibody are mixed into 15 μL total volume reaction mixture.
as §3, §4

T1 sequence (O60674 whole entry): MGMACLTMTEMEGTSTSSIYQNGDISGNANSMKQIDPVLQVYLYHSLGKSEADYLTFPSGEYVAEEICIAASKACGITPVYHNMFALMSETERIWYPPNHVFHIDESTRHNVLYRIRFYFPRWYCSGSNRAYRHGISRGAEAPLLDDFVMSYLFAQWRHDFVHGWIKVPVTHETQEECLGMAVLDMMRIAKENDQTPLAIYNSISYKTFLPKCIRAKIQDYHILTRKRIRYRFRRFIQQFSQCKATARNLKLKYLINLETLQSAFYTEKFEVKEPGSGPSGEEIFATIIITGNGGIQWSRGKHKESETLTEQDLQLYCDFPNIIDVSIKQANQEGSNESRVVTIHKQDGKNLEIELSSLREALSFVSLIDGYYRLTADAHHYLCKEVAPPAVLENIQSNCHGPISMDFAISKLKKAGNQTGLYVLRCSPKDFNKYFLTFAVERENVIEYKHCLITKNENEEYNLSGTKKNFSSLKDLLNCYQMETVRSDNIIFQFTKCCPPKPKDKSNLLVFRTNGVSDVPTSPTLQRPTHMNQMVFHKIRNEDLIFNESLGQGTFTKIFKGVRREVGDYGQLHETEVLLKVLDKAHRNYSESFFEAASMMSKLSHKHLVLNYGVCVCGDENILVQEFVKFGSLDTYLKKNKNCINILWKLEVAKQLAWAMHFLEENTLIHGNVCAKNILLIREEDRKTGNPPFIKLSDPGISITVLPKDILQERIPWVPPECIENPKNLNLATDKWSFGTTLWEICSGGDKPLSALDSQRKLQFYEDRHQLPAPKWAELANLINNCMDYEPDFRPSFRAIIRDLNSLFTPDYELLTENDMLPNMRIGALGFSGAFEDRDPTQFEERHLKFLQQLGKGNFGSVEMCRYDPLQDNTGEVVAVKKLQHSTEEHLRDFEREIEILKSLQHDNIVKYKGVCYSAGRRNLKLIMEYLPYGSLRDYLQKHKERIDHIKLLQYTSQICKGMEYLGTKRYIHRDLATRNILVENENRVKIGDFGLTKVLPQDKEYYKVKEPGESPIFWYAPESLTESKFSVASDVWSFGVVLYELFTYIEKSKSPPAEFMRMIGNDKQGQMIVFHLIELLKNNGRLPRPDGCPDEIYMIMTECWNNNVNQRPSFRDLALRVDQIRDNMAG

Question: With `COc1cc2c(cc1N)c(=O)n(C)c1cnc(Nc3ccc(F)c(N)c3)nc21` [Compound C28, 8-amino-2-((3-amino-4-fluorophenyl)amino)-9-methoxy-5-methylpyrimido [5,4-c]isoquinolin-6(5H)-one] as the compound, how does the IC50 (JAK2) read?
Answer: 100 to 1000 nM

Question: What about the EC50 (MV4-11 cells) of the same compound?
Answer: 25 to 100 nM

Question: And the IC50 (FLT3 wt)?
Answer: 100 to 1000 nM

Question: What about the EC50 (MOLM-13 cells) of the same compound?
Answer: 100 to 1000 nM

Question: What about the IC50 (JAK3) of the same compound?
Answer: 100 to 1000 nM

Question: With `COc1cc2c(cc1N)c(=O)n(C)c1cnc(Nc3cc(N)cc(F)c3)nc21` [Compound C26, 8-amino-2-((3-amino-5-fluorophenyl)amino)-9-methoxy-5-methylpyrimido [5,4-c]isoquinolin-6(5H)-one] as the compound, how does the IC50 (JAK2) read?
Answer: 100 to 1000 nM

Question: What about the EC50 (MV4-11 cells) of the same compound?
Answer: 25 to 100 nM

Question: And the IC50 (FLT3 wt)?
Answer: 100 to 1000 nM

Question: What about the EC50 (MOLM-13 cells) of the same compound?
Answer: 25 to 100 nM

Question: What about the IC50 (JAK3) of the same compound?
Answer: 100 to 1000 nM

Question: With `Cn1c(=O)c2cc(N)ccc2c2nc(Nc3ccc(F)c(N)c3)ncc21` [Compound C22, 8-amino-2-((3-amino-4-fluorophenyl)amino)-5-methylpyrimido[5,4-c]isoquinolin-6(5H)-one] as the compound, how does the IC50 (JAK2) read?
Answer: 100 to 1000 nM

Question: And the EC50 (MV4-11 cells)?
Answer: 100 to 1000 nM

Question: What about the IC50 (FLT3 wt) of the same compound?
Answer: 100 to 1000 nM

Question: And the EC50 (MOLM-13 cells)?
Answer: 100 to 1000 nM

Question: And the IC50 (JAK3)?
Answer: 25 to 100 nM

Question: How did the IC50 (JAK2) turn out when `CN1CCN(c2ccc(Nc3ncc4c(n3)c3ccc(N)cc3c(=O)n4C)cc2)CC1` [Compound C4, 8-amino-5-methyl-2-((4-(4-methylpiperazin-1-yl)phenyl)amino)pyrimido[5,4-c]isoquinolin-6(5H)-one] was run?
Answer: 100 to 1000 nM

Question: And the EC50 (MV4-11 cells)?
Answer: < 25 nM

Question: And the IC50 (FLT3 wt)?
Answer: 25 to 100 nM

Question: What about the EC50 (MOLM-13 cells) of the same compound?
Answer: < 25 nM

Question: What about the IC50 (JAK3) of the same compound?
Answer: 25 to 100 nM

Question: `CN1CCN(c2cccc(Nc3ncc4c(n3)c3ccc(N)cc3c(=O)n4C)c2)CC1` [Compound C6, 8-amino-5-methyl-2-((3-(4-methylpiperazin-1-yl)phenyl)amino)pyrimido[5,4-c]isoquinolin-6(5H)-one] was tested. Which IC50 (JAK2) did it give?
Answer: 100 to 1000 nM

Question: What about the EC50 (MV4-11 cells) of the same compound?
Answer: 25 to 100 nM

Question: And the IC50 (FLT3 wt)?
Answer: 25 to 100 nM

Question: And the EC50 (MOLM-13 cells)?
Answer: 25 to 100 nM

Question: What about the IC50 (JAK3) of the same compound?
Answer: 25 to 100 nM

Question: `Cn1c(=O)c2cc(N)ccc2c2nc(Nc3ccc(OCCN4CCCC4)cc3)ncc21` [Compound C34, 8-amino-5-methyl-2-((4-(2-(pyrrolidin-1-yl)ethoxy)phenyl)amino)pyrimido[5,4-c]isoquinolin-6(5H)-one] was tested. Which IC50 (JAK2) did it give?
Answer: 100 to 1000 nM

Question: And the EC50 (MV4-11 cells)?
Answer: 100 to 1000 nM

Question: And the IC50 (FLT3 wt)?
Answer: 25 to 100 nM

Question: And the EC50 (MOLM-13 cells)?
Answer: 100 to 1000 nM

Question: What about the IC50 (JAK3) of the same compound?
Answer: 100 to 1000 nM

Question: `Cn1c(=O)c2cc(N)ccc2c2nc(Nc3cccc(N)c3)ncc21` [Compound C2, 8-amino-2-((3-aminophenyl)amino)-5-methylpyrimido[5,4-c]isoquinolin-6(5H)-one] was tested. Which IC50 (JAK2) did it give?
Answer: 25 to 100 nM

Question: What about the EC50 (MV4-11 cells) of the same compound?
Answer: 25 to 100 nM

Question: What about the IC50 (FLT3 wt) of the same compound?
Answer: 25 to 100 nM

Question: What about the EC50 (MOLM-13 cells) of the same compound?
Answer: 25 to 100 nM

Question: And the IC50 (JAK3)?
Answer: 25 to 100 nM

Question: With `COc1cc2c(cc1N)c(=O)n(C)c1cnc(Nc3ccc(N4CCN(C)CC4)cc3)nc21` [Compound C10, 8-amino-9-methoxy-5-methyl-2-((4-(4-methylpiperazin-1-yl)phenyl)amino) pyrimido[5,4-c]isoquinolin-6(5H)-one] as the compound, how does the IC50 (JAK2) read?
Answer: 100 to 1000 nM

Question: What about the EC50 (MV4-11 cells) of the same compound?
Answer: < 25 nM

Question: What about the IC50 (FLT3 wt) of the same compound?
Answer: 25 to 100 nM

Question: And the EC50 (MOLM-13 cells)?
Answer: 100 to 1000 nM

Question: And the IC50 (JAK3)?
Answer: 25 to 100 nM

Question: Which results are given for `COc1cc2c(cc1N)c(=O)n(C)c1cnc(Nc3ccc(OCCN4CCCC4)cc3)nc21` [Compound C42, 8-amino-9-methoxy-5-methyl-2-((4-(2-(pyrrolidin-1-yl)ethoxy)phenyl)amino) pyrimido[5,4-c]isoquinolin-6(5H)-one]?
Answer: IC50 (JAK2): 100 to 1000 nM; EC50 (MV4-11 cells): 100 to 1000 nM; IC50 (FLT3 wt): 100 to 1000 nM; EC50 (MOLM-13 cells): 100 to 1000 nM; IC50 (JAK3): 100 to 1000 nM
